# In PMC8308777, “Small Molecule–Peptide Conjugates as Dimerization Inhibitors of Leishmania infantum Trypanothione Disulfide Reductase” (Pharmaceuticals, 2021):
# Read-outs that look alike come from different tables or passages of the source.
# Tests used:
# [1] = target: T1, Leishmania infantum trypanothione disulfide reductase (LiTryR) (Leishmania infantum, UniProt A4HSF7); assay: LiTryR oxidoreductase activity assay (DTNB-coupled); type: biochemical; conditions: no preincubation; for IC50: modified DTNB-coupled assay, 26 °C, HEPES pH 7.5, HIS-LiTryR 7 nM, TS2 1 μM, NADPH 150 μM, inhibitor 0.1-25 μM, IC50 ± SE, three independent experiments in triplicate, read-out: IC50act, LiTryR oxidoreductase activity
# T1 construct: HIS; made in house; host or cells: E. coli BL21 (DE3) Rossetta 2
# T1 sequence (A4HSF7 entry or part of it): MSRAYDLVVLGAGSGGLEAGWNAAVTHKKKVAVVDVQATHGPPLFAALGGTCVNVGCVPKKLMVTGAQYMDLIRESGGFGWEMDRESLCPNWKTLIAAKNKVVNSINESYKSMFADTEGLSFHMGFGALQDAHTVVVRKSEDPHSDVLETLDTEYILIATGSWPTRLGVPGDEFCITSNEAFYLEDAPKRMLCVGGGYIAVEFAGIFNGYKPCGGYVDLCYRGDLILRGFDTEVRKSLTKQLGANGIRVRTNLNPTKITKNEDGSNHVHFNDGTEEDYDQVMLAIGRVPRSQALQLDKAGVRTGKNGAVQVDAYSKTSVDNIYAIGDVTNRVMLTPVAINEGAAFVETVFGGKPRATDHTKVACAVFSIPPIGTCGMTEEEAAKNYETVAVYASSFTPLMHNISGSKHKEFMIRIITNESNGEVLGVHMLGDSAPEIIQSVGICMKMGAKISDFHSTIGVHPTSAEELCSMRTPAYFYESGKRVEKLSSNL
# Description: LiTryR oxidoreductase activity was assessed spectrophotometrically using a modified version of the DTNB-coupled assay, described by Hamilton et al.. Briefly, reactions were performed at 26 °C in 250 μL of HEPES buffer (pH 7.5, 40 mM) containing EDTA (1 mM), NADP^+ (30 μM), DTNB (25 μM), TS2 (1 μM), NADPH (150 μM), glycerol (0.02%), DMSO (1.75%), and recombinant HIS-LiTryR (7 nM). […] Reactions were started by addition of a mixture (50 μL/well) of the substrates (NADPH and TS2).
# LiTryR oxidoreductase activity was monitored at 26 °C by an increase in absorbance at 412 nm in an EnSpire Multimode Plate Reader (PerkinElmer, Waltham, MA, USA). In this DTNB-coupled assay, one molecule of T(SH)2 reduces one molecule of DTNB, producing two TNB molecules. The TNB concentration was obtained by multiplying the absorbance values by 100 (50 μM TNB generates 0.5 arbitrary units of absorbance at 412 nm).
# For IC50 determinations, the initial velocities were calculated from the slope of the initial linear part of the reaction curves. The initial velocities of the reaction progress curves in the presence of inhibitor (concentrations ranging from 0.1 to 25 μM) were normalized as a percentage with respect to the initial velocity in the presence of the inhibitor vehicle (DMSO). IC50 values were obtained by fitting these percentages to a nonlinear regression model with GraFit 6 software (Erithacus, Horley, Surrey, U.K.). All the assays were performed in triplicate.
# [2] = target: T2, HIS-FLAG-tagged LiTryR dimer (Leishmania infantum, UniProt A4HSF7); assay: LiTryR dimer quantitation assay (ELISA); type: biochemical; conditions: 16 h at 37 °C; for IC50: HIS-FLAG-LiTryR 400 nM, Tris pH 8.0, 300 mM NaCl, compounds 25 to 3.1 μM, IC50 ± SE, three independent experiments in triplicate, read-out: IC50dim, LiTryR dimer quantitation
# T2 construct: made in house; host or cells: E. coli BL21 (DE3) Rossetta 2
# T2 sequence (A4HSF7 entry or part of it): as above
# Description: The relative amount of the LiTryR dimeric form in the presence of the SMPCs was assessed using an enzyme-linked immunosorbent assay (ELISA), developed in our laboratory. Briefly, HIS-FLAG-tagged LiTryR (400 nM) was incubated in dimerization buffer (1 mL of 50 mM Tris pH 8.0 and 300 mM NaCl) for 16 h at 37 °C with vigorous shaking and in a humid atmosphere in the presence of the different compounds ranging from 25 to 3.1 μM. Following a 15 min centrifugation at 18,000× g and room temperature, the supernatants were added to the α-FLAG-coated plates (200 μL/well) and incubated for 30 min at 37 °C with vigorous shaking in a humid atmosphere. The plates were washed five times with TTBS buffer (2 mM Tris pH 7.6, 138 mM NaCl, and 0.1% Tween-20) and incubated with diluted monoclonal α-HIS horseradish peroxidase (HRP)-conjugated antibody (200 μL/well, 1:50,000, Abcam, Cambridge, UK) in fatty acid- and essentially globulin-free bovine serum albumin (5%) prepared in TTBS buffer for 1 h at room temperature. The plates were washed again five times and the o-phenylenediamine dihydrochloride substrate, prepared according to the manufacturer’s instructions, was added (100 μL/well). The enzymatic reactions were stopped after 5 min by addition of […] (100 μL/well) and the absorbances were measured at 490 nm in an EnSpire Multimode Plate Reader (PerkinElmer, Waltham, MA, USA).
# For IC50 determinations, the absorbance values in the presence of different concentrations of inhibitor were normalized as a percentage with respect to the absorbance value in the presence of DMSO. The IC50 values were obtained by fitting these percentages to a nonlinear regression model with GraFit 6 software (Erithacus, Horley, Surrey, U.K.). The assays were carried out in triplicate and repeated three times.
# [3] = qualitative, attributed to increased hydrophobicity of the adamantyl substituent
Compound,IC50 ([1]; SEM) [µM],IC50 ([2]; SEM) [µM],also measured
"CC[C@H](C)[C@H](NC(=O)CNC(=O)[C@@H](NC(=O)[C@H](CO)NC(=O)[C@H](CCC(N)=O)NC(=O)[C@@H](NC(=O)[C@@H](NC(=O)[C@H](CCCCN)NC(=O)[C@@H]1CCCN1C(=O)COCCOCCNC(=O)Cc1ccccc1)[C@@H](C)CC)[C@@H](C)CC)C(C)C)C(N)=O [1a, Ph-CH2-CO-NH-(CH2)2-O-(CH2)2-O-CH2-CO-NH-PKIIQSVGI-NH2]",22 ± 0.7,9.4 ± 0.1,–
"CC[C@H](C)[C@H](NC(=O)CNC(=O)[C@@H](NC(=O)[C@H](CO)NC(=O)[C@H](CCC(N)=O)NC(=O)[C@@H](NC(=O)[C@@H](NC(=O)[C@H](CCCCN)NC(=O)[C@@H]1CCCN1C(=O)COCCOCCNC(=O)Cc1ccc2ccccc2c1)[C@@H](C)CC)[C@@H](C)CC)C(C)C)C(N)=O [1b, Naphthyl-CH2-CO-NH-(CH2)2-O-(CH2)2-O-CH2-CO-NH-PKIIQSVGI-NH2]",18.2 ± 1,8.7 ± 0.5,–
"CC[C@H](C)[C@H](NC(=O)CNC(=O)[C@@H](NC(=O)[C@H](CO)NC(=O)[C@H](CCC(N)=O)NC(=O)[C@@H](NC(=O)[C@@H](NC(=O)[C@H](CCCCN)NC(=O)[C@@H]1CCCN1C(=O)COCCOCCNC(=O)Cc1ccc(-c2ccccc2)cc1)[C@@H](C)CC)[C@@H](C)CC)C(C)C)C(N)=O [1c, Biphenyl-CH2-CO-NH-(CH2)2-O-(CH2)2-O-CH2-CO-NH-PKIIQSVGI-NH2]",16.6 ± 3.8,22.9 ± 1.4,–
CC[C@H](C)[C@H](NC(=O)CNC(=O)[C@@H](NC(=O)[C@H](CO)NC(=O)[C@H](CCC(N)=O)NC(=O)[C@@H](NC(=O)[C@@H](NC(=O)[C@H](CCCCN)NC(=O)[C@@H]1CCCN1C(=O)COCCOCCNC(=O)CN1C(=O)c2cccc3cccc1c23)[C@@H](C)CC)[C@@H](C)CC)C(C)C)C(N)=O [1d],6.7 ± 0.4,7.8 ± 0.1,–
"CC[C@H](C)[C@H](NC(=O)CNC(=O)[C@@H](NC(=O)[C@H](CO)NC(=O)[C@H](CCC(N)=O)NC(=O)[C@@H](NC(=O)[C@@H](NC(=O)[C@H](CCCCN)NC(=O)[C@@H]1CCCN1C(=O)COCCOCCNC(=O)CC12CC3CC(CC(C3)C1)C2)[C@@H](C)CC)[C@@H](C)CC)C(C)C)C(N)=O [1f, Adamantyl-CH2-CO-NH-(CH2)2-O-(CH2)2-O-CH2-CO-NH-PKIIQSVGI-NH2]",7.6 ± 1.2,8.1 ± 0.2,solubility [3]: decrease in solubility
"CC[C@H](C)[C@H](NC(=O)CNC(=O)[C@@H](NC(=O)[C@H](CO)NC(=O)[C@H](CCC(N)=O)NC(=O)[C@@H](NC(=O)[C@@H](NC(=O)[C@H](CCCCN)NC(=O)[C@@H]1CCCN1C(=O)COCCNC(=O)Cc1ccccc1)[C@@H](C)CC)[C@@H](C)CC)C(C)C)C(N)=O [2a, Ph-CH2-CO-NH-(CH2)2-O-CH2-CO-NH-PKIIQSVGI-NH2]",22.3 ± 1.5,15 ± 0.6,–
CC[C@H](C)[C@H](NC(=O)CNC(=O)[C@@H](NC(=O)[C@H](CO)NC(=O)[C@H](CCC(N)=O)NC(=O)[C@@H](NC(=O)[C@@H](NC(=O)[C@H](CCCCN)NC(=O)[C@@H]1CCCN1C(=O)COCCNC(=O)CN1C(=O)c2cccc3cccc1c23)[C@@H](C)CC)[C@@H](C)CC)C(C)C)C(N)=O [2d],6.9 ± 1.9,7.1 ± 0.1,–
"CC[C@H](C)[C@H](NC(=O)CNC(=O)[C@@H](NC(=O)[C@H](CO)NC(=O)[C@H](CCC(N)=O)NC(=O)[C@@H](NC(=O)[C@@H](NC(=O)[C@H](CCCCN)NC(=O)[C@@H]1CCCN1C(=O)CCNC(=O)Cc1ccccc1)[C@@H](C)CC)[C@@H](C)CC)C(C)C)C(N)=O [3a, Ph-CH2-CO-NH-(CH2)2-CO-NH-PKIIQSVGI-NH2]",20.6 ± 1.6,12.7 ± 1.1,–
"CC[C@H](C)[C@H](NC(=O)CNC(=O)[C@@H](NC(=O)[C@H](CO)NC(=O)[C@H](CCC(N)=O)NC(=O)[C@@H](NC(=O)[C@@H](NC(=O)[C@H](CCCCN)NC(=O)[C@@H]1CCCN1C(=O)Cc1ccccc1)[C@@H](C)CC)[C@@H](C)CC)C(C)C)C(N)=O [4a, Ph-CH2-CO-NH-PKIIQSVGI-NH2]",10.3 ± 1.8,11.4 ± 0.1,–
CC[C@H](C)[C@H](NC(=O)CNC(=O)[C@@H](NC(=O)[C@H](CO)NC(=O)[C@H](CCC(N)=O)NC(=O)[C@@H](NC(=O)[C@@H](NC(=O)[C@H](CCCCN)NC(=O)[C@@H]1CCCN1C(=O)CN1C(=O)c2cccc3cccc1c23)[C@@H](C)CC)[C@@H](C)CC)C(C)C)C(N)=O [4d],8 ± 1.5,7.1 ± 0.2,–
"CC[C@H](C)[C@H](NC(=O)CNC(=O)[C@@H](NC(=O)[C@H](CO)NC(=O)[C@H](CCC(N)=O)NC(=O)[C@@H](NC(=O)[C@@H](NC(=O)[C@H](CCCCN)NC(=O)[C@@H]1CCCN1C(C)=O)[C@@H](C)CC)[C@@H](C)CC)C(C)C)C(N)=O [TRL38, Ac-PKIIQSVGI-NH2, reference compound]",–,–,"LiTryR oxidoreductase activity at 25 μM (%) ([1]; at 25 μM, reliable IC50 could not be determined): 65.1%; IC50 [1]: > 25 µM; IC50 [2]: > 25 µM; LiTryR dimer at 25 μM (%) [2]: 61.4%"
"CC[C@H](C)[C@H](NC(=O)CNC(=O)[C@@H](NC(=O)[C@H](CO)NC(=O)[C@H](CCC(N)=O)NC(=O)[C@@H](NC(=O)[C@@H](NC(=O)[C@H](CCCCN)NC(=O)[C@@H]1CCCN1C(=O)COCCOCCNCc1ccccc1)[C@@H](C)CC)[C@@H](C)CC)C(C)C)C(N)=O [compound 7, Ph-CH2-NH-(CH2)2-O-(CH2)2-O-CH2-CO-NH-PKIIQSVGI-NH2]",8.3 ± 1.4,12.6 ± 0.6,–
"CC[C@H](C)[C@H](NC(=O)CNC(=O)[C@@H](NC(=O)[C@H](CO)NC(=O)[C@H](CCC(N)=O)NC(=O)[C@@H](NC(=O)[C@@H](NC(=O)[C@H](CCCCN)NC(=O)[C@@H]1CCCN1C(=O)COCCOCCN(Cc1ccccc1)Cc1ccccc1)[C@@H](C)CC)[C@@H](C)CC)C(C)C)C(N)=O [compound 8, (Ph-CH2)2N-(CH2)2-O-(CH2)2-O-CH2-CO-NH-PKIIQSVGI-NH2]",9.8 ± 2.3,7.1 ± 0.5,–
"CC[C@H](C)[C@H](NC(=O)CNC(=O)[C@@H](NC(=O)[C@H](CO)NC(=O)[C@H](CCC(N)=O)NC(=O)[C@@H](NC(=O)[C@@H](NC(=O)[C@H](CCCCN)NC(=O)[C@@H]1CCCN1C(=O)COCCOCC[N+](C)(C)Cc1ccccc1)[C@@H](C)CC)[C@@H](C)CC)C(C)C)C(N)=O [compound 9, (Ph-CH2)(Me)2N^+-(CH2)2-O-(CH2)2-O-CH2-CO-NH-PKIIQSVGI-NH2 I^−]",18.3 ± 2.6,–,IC50 [2]: > 25 µM; LiTryR dimer at 25 μM (%) [2]: 53.3%
"CC[C@H](C)[C@H](NC(=O)CNC(=O)[C@@H](NC(=O)[C@H](CO)NC(=O)[C@H](CCC(N)=O)NC(=O)[C@@H](NC(=O)[C@@H](NC(=O)[C@H](CCCCN)NC(=O)[C@@H]1CCCN1C(=O)COCCOCC[N+](C)(Cc1ccccc1)Cc1ccccc1)[C@@H](C)CC)[C@@H](C)CC)C(C)C)C(N)=O [compound 10, (Ph-CH2)2(Me)N^+-(CH2)2-O-(CH2)2-O-CH2-CO-NH-PKIIQSVGI-NH2 I^−]",9.2 ± 1.1,21.2 ± 3.5,–
